The values below come from patent US11560385B2, “Proteasome activity enhancing compounds” (Proteostasis Therapeutics, Inc., priority 2018, dated 2023).

pIC50: −log10 of the molar value.

T1 sequence (P54578 whole entry, looked up): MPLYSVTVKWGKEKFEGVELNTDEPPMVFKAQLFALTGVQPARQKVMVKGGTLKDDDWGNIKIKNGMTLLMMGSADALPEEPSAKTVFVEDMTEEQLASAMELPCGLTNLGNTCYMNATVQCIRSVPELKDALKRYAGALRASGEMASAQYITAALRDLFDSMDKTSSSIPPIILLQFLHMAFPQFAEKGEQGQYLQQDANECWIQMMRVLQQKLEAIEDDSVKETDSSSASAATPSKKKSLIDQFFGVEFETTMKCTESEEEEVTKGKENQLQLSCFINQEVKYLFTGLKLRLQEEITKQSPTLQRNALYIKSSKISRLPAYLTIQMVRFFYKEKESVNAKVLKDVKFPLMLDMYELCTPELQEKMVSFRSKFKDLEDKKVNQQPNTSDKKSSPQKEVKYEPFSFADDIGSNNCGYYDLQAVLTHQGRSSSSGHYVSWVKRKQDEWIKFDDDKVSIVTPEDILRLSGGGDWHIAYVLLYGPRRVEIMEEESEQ

The target in one assay is T1, USP14 (Homo sapiens (Human), UniProt P54578). The assay can be described thus: Usp14 inhibition assay (Example 57B, B-series compounds). It counts as biochemical. To be noted: IC50 class; average value from a minimum of two experimental determinations. The text has this:
Example 57B: Usp14 Inhibition Assay
(§1) The IC50 values in the Table below represent the average value from a minimum of two experimental determinations.
With `Cc1c(C(=O)CN2C3CCC2[C@@H](O)C3)c(C(F)(F)F)c(C)n1-c1ccc(C#N)cc1` (mixture of isomers) [Example 79B, (±)-4-(3-(2-((2R)-2-Hydroxy-7-azabicyclo[2.2.1]heptan-7-yl)acetyl)-2,5-dimethyl-4-(trifluoromethyl)-1H-pyrrol-1-yl)benzonitrile], the pIC50 was under 6.30. Regarding `Cc1c(C(=O)CN2[C@H]3CC[C@@H]2[C@@H](O)C3)cc(CC23CC(C2)C3)n1-c1ccc(C#N)cc1` (racemic) [Example 158B, (±)-4-(5-(Bicyclo[1.1.1]pentan-1-ylmethyl)-3-(2-((1R,2S,4S)-2-hydroxy-7-azabicyclo[2.2.1]heptan-7-yl)acetyl)-2-methyl-1H-pyrrol-1-yl)benzonitrile], the pIC50 is under 6.30. On the same count and under the same terms, the figure for `Cc1cc(C(=O)CN2[C@H]3CCC[C@@H]2[C@@H](O)C3)c(C)n1-c1ccc(C#N)cc1` (racemic) [Example 83B, (±)-4-(3-(2-((1S,5R,6S)-6-Hydroxy-8-azabicyclo[3.2.1]octan-8-yl)acetyl)-2,5-dimethyl-1H-pyrrol-1-yl)benzonitrile] is 6.30 to 7.30; for `Cc1cc(C(=O)CN2[C@@H]3CC[C@H]2[C@@](C)(O)C3)c(C)n1-c1ccc(C#N)cc1` (racemic) [Example 71B, (±)-4-(3-(2-((1R,2R,4S)-2-Hydroxy-2-methyl-7-azabicyclo[2.2.1]heptan-7-yl)acetyl)-2,5-dimethyl-1H-pyrrol-1-yl)benzonitrile] it is under 6.30; for `Cc1cc(C(=O)CN2C3CCCC2CC(O)C3)c(C)n1-c1ccc(C#N)cc1` [Example 86B, 4-(3-(2-((1R,3r,5S)-3-Hydroxy-9-azabicyclo[3.3.1]nonan-9-yl)acetyl)-2,5-dimethyl-1H-pyrrol-1-yl)benzonitrile] it is 6.30 to 7.30.

Compound `Cc1cc(C(=O)CN2C3CCC2[C@@H](CO)C3)c(C)n1-c1ccc(C#N)cc1` (mixture of isomers) [Example 130B, (±)-4-(3-(2-((2R)-2-(Hydroxymethyl)-7-azabicyclo[2.2.1]heptan-7-yl)acetyl)-2,5-dimethyl-1H-pyrrol-1-yl)benzonitrile] gave a pIC50 of 6.30 to 7.30. The compound `Cc1c(C(=O)CN2C3CCC2CC3)cc(C#N)n1-c1ccc(C#N)cc1` [Example 137B, 4-(2-(7-Azabicyclo[2.2.1]heptan-7-yl)acetyl)-1-(4-cyanophenyl)-5-methyl-1H-pyrrole-2-carbonitrile] had a pIC50 of over 7.30. The same measure, in the same setting: to `Cc1c(C(=O)CN2C3CCC2CC3)cc(CC2CCS(=O)(=O)CC2)n1-c1ccc(Cl)cc1` [Example 25B, 2-(7-Azabicyclo[2.2.1]heptan-7-yl)-1-(1-(4-chlorophenyl)-5-((1,1-dioxidotetrahydro-2H-thiopyran-4-yl)methyl)-2-methyl-1H-pyrrol-3-yl)ethan-1-one] belongs 6.30 to 7.30; to `Cc1cc(C(=O)CN2[C@@H]3CC[C@H]2[C@](O)(C(C)(C)C)C3)c(C)n1-c1ccc(C#N)cc1` (racemic) [Example 72B, (±)-4-(3-(2-((1R,2S,4S)-2-(tert-Butyl)-2-hydroxy-7-azabicyclo[2.2.1]heptan-7-yl)acetyl)-2,5-dimethyl-1H-pyrrol-1-yl)benzonitrile], under 6.30; to `Cc1c(F)c(C(=O)CN2C3CCC2[C@@H](O)C3)c(C)n1-c1ccc(C#N)c(F)c1` (mixture of isomers) [Example 120B, (±)-2-Fluoro-4-(3-fluoro-4-(2-((2R)-2-hydroxy-7-azabicyclo[2.2.1]heptan-7-yl)acetyl)-2,5-dimethyl-1H-pyrrol-1-yl)benzonitrile], over 7.30.

Turning to `CSCCCCCc1cc(C(=O)CN2[C@@H]3CC[C@H]2[C@@H](O)C3)c(C)n1-c1ccc(C#N)cc1` (racemic) [Example 38B, (±)-4-(3-(2-((1R,2R,4S)-2-Hydroxy-7-azabicyclo[2.2.1]heptan-7-yl)acetyl)-2-methyl-5-(5-(methylthio)pentyl)-1H-pyrrol-1-yl)benzonitrile], the pIC50 is over 7.30. The same measure, in the same setting: the figure for `Cc1cc(C(=O)CN2[C@@H]3CC[C@H]2[C@@H](OC(F)(F)F)C3)c(C)n1-c1ccc(C#N)cc1` (racemic) [Example 105B, (±)-4-(2,5-Dimethyl-3-(2-((1R,2R,4S)-2-(trifluoromethoxy)-7-azabicyclo[2.2.1]heptan-7-yl)acetyl)-1H-pyrrol-1-yl)benzonitrile] is under 6.30; for `Cc1cc(C(=O)CN2C3CCC2(CO)CC3)c(C)n1-c1ccc(C#N)cc1` [Example 126B, 4-(3-(2-(1-(Hydroxymethyl)-7-azabicyclo[2.2.1]heptan-7-yl)acetyl)-2,5-dimethyl-1H-pyrrol-1-yl)benzonitrile] it is 6.30 to 7.30; for `Cc1c(C(=O)CN2C3CCC2CC3)cc(CC2COC2)n1-c1ccc(C#N)cc1` [Example 54B, 4-(3-(2-(7-Azabicyclo[2.2.1]heptan-7-yl)acetyl)-2-methyl-5-(oxetan-3-ylmethyl)-1H-pyrrol-1-yl)benzonitrile] it is over 7.30. Still for that read-out and setting: to `COC1C[C@H]2CC[C@H](C1)N2CC(=O)c1cc(C)n(-c2ccc(C#N)cc2)c1C` (stereo partly drawn) [Example 89B, 4-(3-(2-((1R,3s,5S)-3-Methoxy-8-azabicyclo[3.2.1]octan-8-yl)acetyl)-2,5-dimethyl-1H-pyrrol-1-yl)benzonitrile] belongs 6.30 to 7.30. Still for that read-out and setting: to `Cc1nc(Cc2c(Br)c(C(=O)CN3C4CCC3[C@@H](O)C4)c(C)n2-c2ccc(C#N)cc2)cs1` (mixture of isomers) [Example 129B, (±)-4-(3-Bromo-4-(2-((2R)-2-hydroxy-7-azabicyclo[2.2.1]heptan-7-yl)acetyl)-5-methyl-2-((2-methylthiazol-4-yl)methyl)-1H-pyrrol-1-yl)benzonitrile] belongs 6.30 to 7.30.

In turn, `Cc1c(C(=O)CN2C3CCC2[C@@H](O)C3)cc(C#CCCC#N)n1-c1ccc(C#N)cc1` (mixture of isomers) [Example 10B, (±)-4-(5-(4-Cyanobut-1-yn-1-yl)-3-(2-((2R)-2-hydroxy-7-azabicyclo[2.2.1]heptan-7-yl)acetyl)-2-methyl-1H-pyrrol-1-yl)benzonitrile] had a pIC50 of over 7.30. In turn, `Cc1c(C(=O)CN2C3CCC2CC3)cc(/C=C\CCS(C)(=O)=O)n1-c1ccc(C#N)cc1` [Example 26B] had a pIC50 of over 7.30.

For a further assay, the target named is T1, USP14. The assay can be described thus: Usp14 inhibition assay (Example 5A, A-series compounds). The format is biochemical. The conditions noted are these: average value from a minimum of two experimental determinations; read-out: Usp14 IC50 Category.
Excerpt: Example 5A: Usp14 Inhibition Assay
as §1
As to `Cc1c(C(=O)CN2CCC(O)CC2)c2ccc(CCS(C)(=O)=O)cc2n1-c1ccc(Cl)cc1` [Example 7A, 1-(1-(4-Chlorophenyl)-2-methyl-6-(2-(methylsulfonyl)ethyl)-1H-indol-3-yl)-2-(4-hydroxypiperidin-1-yl)ethan-1-one], the pIC50 is over 7.30. The same measure, in the same setting: the figure for `Cc1c(C(=O)CN2C3CCC2[C@@H](O)C3)c2ccc(CCCC#N)cc2n1-c1ccc(Cl)cc1` (mixture of isomers) [Example 18A, (±)-4-(1-(4-Chlorophenyl)-3-(2-((2S)-2-hydroxy-7-azabicyclo[2.2.1]heptan-7-yl)acetyl)-2-methyl-1H-indol-6-yl)butanenitrile] is over 7.30; for `Cc1c(C(=O)CN2[C@@H]3CC[C@H]2C[C@H](O)C3)c2ccc(CCC#N)cc2n1-c1ccc(Cl)cc1` [Example 21A, 3-(1-(4-Chlorophenyl)-3-(2-((1R,3S,5S)-3-hydroxy-8-azabicyclo[3.2.1]octan-8-yl)acetyl)-2-methyl-1H-indol-6-yl)propanenitrile] it is 7.00 to 7.30. For the compound `Cc1c(C(=O)CN2[C@@H]3CCC[C@H]2CC3)c2ccc(CCS(C)(=O)=O)cc2n1-c1ccc(Cl)cc1` [Example 2A, 2-((1R,5S)-8-Azabicyclo[3.2.1]octan-8-yl)-1-(1-(4-chlorophenyl)-2-methyl-6-(2-(methylsulfonyl)ethyl)-1H-indol-3-yl)ethan-1-one], the pIC50 was over 7.30.

With `Cc1c(C(=O)CN2CCC(O)CC2)c2ccc(CC3COC3)cc2n1-c1ccc(Cl)cc1` [Example 14A, 1-(1-(4-Chlorophenyl)-2-methyl-6-(oxetan-3-ylmethyl)-1H-indol-3-yl)-2-(4-hydroxypiperidin-1-yl)ethan-1-one], the negative logarithm of the IC50 (pIC50) was 7.00 to 7.30.

Regarding `Cc1c(C(=O)CN2C3CCC2C(O)C3)c2ccc(CC3COC3)cc2n1-c1ccc(Cl)cc1` (stereo in doubt) [Example 13A, 1-(1-(4-Chlorophenyl)-2-methyl-6-(oxetan-3-ylmethyl)-1H-indol-3-yl)-2-((1R,2R,4S)-2-hydroxy-7-azabicyclo[2.2.1]heptan-7-yl)ethan-1-one], the pIC50 is over 7.30. On the same count and under the same terms, the figure for `CO[C@H]1CC2CCC1N2CC(=O)c1c(C)n(-c2ccc(Cl)cc2)c2cc(CCC#N)ccc12` (mixture of isomers) [Example 15A, (±)-3-(1-(4-Chlorophenyl)-3-(2-((2S)-2-methoxy-7-azabicyclo[2.2.1]heptan-7-yl)acetyl)-2-methyl-1H-indol-6-yl)propanenitrile] is over 7.30; for `Cc1c(C(=O)CN2C3CCC2CC(O)C3)c2ccc(CC3COC3)cc2n1-c1ccc(Cl)cc1` [Example 27A, 1-(1-(4-Chlorophenyl)-2-methyl-6-(oxetan-3-ylmethyl)-1H-indol-3-yl)-2-((1R,3S,5S)-3-hydroxy-8-azabicyclo[3.2.1]octan-8-yl)ethan-1-one] it is under 7.00; for `Cc1c(C(=O)CN2[C@@H]3CC[C@H]2C[C@H](O)C3)c2ccc(CCC3=NCCN3C)cc2n1-c1ccc(Cl)cc1` [Example 28A, 1-(1-(4-Chlorophenyl)-2-methyl-6-(2-(1-methyl-4,5-dihydro-1H-imidazol-2-yl)ethyl)-1H-indol-3-yl)-2-((1R,3S,5S)-3-hydroxy-8-azabicyclo[3.2.1]octan-8-yl)ethan-1-one] it is over 7.30.

Regarding `Cc1c(C(=O)CN2C3CCC2CC3)c2ccc(CS(C)(=O)=O)cc2n1-c1ccc(Cl)cc1` [Example 3A, 2-(7-Azabicyclo[2.2.1]heptan-7-yl)-1-(1-(4-chlorophenyl)-2-methyl-6-((methylsulfonyl)methyl)-1H-indol-3-yl)ethan-1-one], the pIC50 was 7.00 to 7.30.

Turning to `Cc1c(C(=O)CN2C3CCC2CC3)c2ccc(CCS(=O)(=O)C3CC3)cc2n1-c1ccc(Cl)cc1` [Example 16A, 2-(7-Azabicyclo[2.2.1]heptan-7-yl)-1-(1-(4-chlorophenyl)-6-(2-(cyclopropylsulfonyl)ethyl)-2-methyl-1H-indol-3-yl)ethan-1-one], the pIC50 was over 7.30.
